Results reported in patent US20250108053A1, “RIBOCICLIB PHARMACEUTICAL COMPOSITIONS” (Novartis AG, priority 2022, published 2025).

Assay: Preliminary studies of ribociclib succinate in oral solutions: pH, solubility, preservatives
Source text: To achieve a clear solution of ribociclib succinate upon reconstitution, sufficient quantity of acid is needed to adjust the pH of the liquid into an acidic range for ribociclib succinate to completely solubilize. For use in the present invention, suitable solubilizers are in the form of an acid.

[1] = oral solutions of ribociclib succinate

**Q.** For C/C=C/C=C/C(=O)[O-].[K+] [potassium sorbate], which “pH required by the preservative” value [1] is on record?
**A.** about 3.5

**Q.** What does the source list for CN(C)C(=O)c1cc2cnc(Nc3ccc(N4CCNCC4)cn3)nc2n1C1CCCC1.O=C(O)CCC(=O)O [ribociclib succinate]?
**A.** Solubility in basic pH as compared to acidic pH: limited solubility in basic pH; pH range in which a clear solution was achieved (ribociclib succinate in oral solutions): 3.5-4.5

**Q.** For O=C([O-])c1ccccc1.[Na+] [sodium benzoate], which “Observation in oral solution formulations with the preservative” value [1] is on record?
**A.** precipitation was observed
